Data taken from US20220061324A1, “PESTICIDALLY ACTIVE HETEROCYCLIC DERIVATIVES WITH SULFUR CONTAINING SUBSTITUENTS” (SYNGENTA CROP PROTECTION AG, priority 2018, published 2022).
Where two headings read alike, the source gives them in different places.

Experiments:
Assay type in all cases: in vivo
[1] = tested on: Diabrotica balteata (Corn Root Worm); assay: Activity against Diabrotica balteata (corn root worm), maize sprouts sprayed; conditions: 96 h, read-out: effect in at least one of the two categories (mortality or growth inhibition); for percent effect (mortality or growth inhibition) at 200 ppm: application rate 200 ppm, L2 larvae, 4 days after infestation
Description: Example B1: Activity Against Diabrotica balteata (Corn Root Worm)
Maize sprouts placed onto an agar layer in 24-well microtiter plates were treated with aqueous test solutions prepared from 10,000 ppm DMSO stock solutions by spraying. After drying, the plates were infested with L2 larvae (6 to 10 per well). The samples were assessed for mortality and growth inhibition in comparison to untreated samples 4 days after infestation.

[2] = tested on: Euschistus heros (Neotropical Brown Stink Bug); assay: Activity against Euschistus heros (neotropical brown stink bug), soybean leaves sprayed; conditions: 120 h, read-out: effect in at least one of the two categories (mortality or growth inhibition); for percent effect (mortality or growth inhibition) at 200 ppm: application rate 200 ppm, N2 nymphs, 5 days after infestation
Description: Example B2: Activity Against Euschistus heros (Neotropical Brown Stink Bug)
Soybean leaves on agar in 24-well microtiter plates were sprayed with aqueous test solutions prepared from 10,000 ppm DMSO stock solutions. After drying the leaves were infested with N2 nymphs. The samples were assessed for mortality and growth inhibition in comparison to untreated samples 5 days after infestation.

[3] = tested on: Frankliniella occidentalis (Western Flower Thrips); assay: Activity against Frankliniella occidentalis (western flower thrips), sunflower leaf discs; conditions: foliar, 168 h, application rate 200 ppm, mixed ages, 7 days after infestation
Description: Example B7: Activity Against Frankliniella occidentalis (Western Flower Thrips)
Sunflower leaf discs were placed on agar in 24-well microtiter plates and sprayed with aqueous test solutions prepared from 10,000 DMSO stock solutions. After drying the leaf discs were infested with a Frankliniella population of mixed ages. The samples were assessed for mortality 7 days after infestation.

[4] = tested on: Plutella xylostella (Diamond Back Moth); assay: Activity against Plutella xylostella (diamond back moth), artificial diet; conditions: 192 h, read-out: effect in at least one of the two categories (mortality or growth inhibition); for percent effect (mortality or growth inhibition) at 200 ppm: application rate 200 ppm, eggs, 8 days after infestation
Description: Example B3: Activity Against Plutella xylostella (Diamond Back Moth)
24-well microtiter plates with artificial diet were treated with aqueous test solutions prepared from 10,000 ppm DMSO stock solutions by pipetting. After drying, Plutella eggs were pipetted through a plastic stencil onto a gel blotting paper and the plate was closed with it. The samples were assessed for mortality and growth inhibition in comparison to untreated samples 8 days after infestation.

[5] = tested on: Spodoptera littoralis (Egyptian Cotton Leaf Worm); assay: Activity against Spodoptera littoralis (Egyptian cotton leaf worm), cotton leaf discs; conditions: foliar, 72 h, read-out: control (mortality, anti-feedant effect or growth inhibition)
Description: Example B5: Activity Against Spodoptera littoralis (Egyptian Cotton Leaf Worm)
Cotton leaf discs were placed onto agar in 24-well microtiter plates and sprayed with aqueous test solutions prepared from 10,000 ppm DMSO stock solutions. After drying the leaf discs were infested with five L1 larvae. The samples were assessed for mortality, anti-feeding effect, and growth inhibition in comparison to untreated samples 3 days after infestation. Control of Spodoptera littoralis by a test sample is given when at least one of the categories mortality, anti-feedant effect, and growth inhibition is higher than the untreated sample.

[6] = tested on: Myzus persicae (Green Peach Aphid); assay: Activity against Myzus persicae (green peach aphid), feeding/contact activity; conditions: 144 h
Description: Example B4: Activity Against Myzus persicae (Green Peach Aphid) Feeding/Contact Activity
Sunflower leaf discs were placed onto agar in a 24-well microtiter plate and sprayed with aqueous test solutions prepared from 10,000 ppm DMSO stock solutions. After drying, the leaf discs were infested with an aphid population of mixed ages. The samples were assessed for mortality 6 days after infestation.

[7] = application rate 200 ppm, L1 larvae, 3 days after infestation
[8] = application rate 200 ppm, feeding/contact, mixed ages, 6 days after infestation, read-out: mortality

CCSc1cc(N=S(C)(C)=O)cnc1-c1ncc2c(OCC(F)(F)C(F)(F)F)nccn12 [Compound P17, [5-ethylsulfanyl-6-[8-(2,2,3,3,3-penta-fluoropropoxy)imidazo [1,5-a]pyrazin-3-yl]-3-pyridyl]imino-dimethyl-oxo-λ^6-sulfane]
≥ 80%: percent effect (mortality or growth inhibition) at 200 ppm [1] | percent effect (mortality or growth inhibition) at 200 ppm [2] | mortality at 200 ppm [3] | percent effect (mortality or growth inhibition) at 200 ppm [4] | percent control (mortality, anti-feedant effect or growth inhibition) at 200 ppm [5, 7]

CCS(=O)(=O)c1cc(N=S(C)(C)=O)cnc1-c1ncc2c(OCC(F)(F)C(F)(F)F)nccn12 [Compound P18, [5-ethylsulfonyl-6-[8-(2,2,3,3,3-penta-fluoropropoxy)imidazo [1,5-a]pyrazin-3-yl]-3-pyridyl]imino-dimethyl-oxo-λ^6-sulfane]
≥ 80%: percent effect (mortality or growth inhibition) at 200 ppm [1] | percent effect (mortality or growth inhibition) at 200 ppm [2] | mortality at 200 ppm [3] | mortality at 200 ppm [6, 8] | percent effect (mortality or growth inhibition) at 200 ppm [4] | percent control (mortality, anti-feedant effect or growth inhibition) at 200 ppm [5, 7]

CCS(=O)(=O)c1cc(C2CC2)cnc1-c1ncc2c(OCC(F)(F)C(F)(F)F)nccn12 [Compound P21, 3-(5-cyclopropyl-3-ethylsulfonyl-2-pyridyl)-8-(2,2,3,3,3-penta-fluoropropoxy)imidazo [1,5-a]pyrazine]
≥ 80%: percent effect (mortality or growth inhibition) at 200 ppm [1] | percent effect (mortality or growth inhibition) at 200 ppm [2] | mortality at 200 ppm [6, 8] | percent effect (mortality or growth inhibition) at 200 ppm [4] | percent control (mortality, anti-feedant effect or growth inhibition) at 200 ppm [5, 7]

CCS(=O)(=O)c1cccnc1-c1ncc2c(OCC(F)(F)C(F)(F)F)nccn12 [Compound P8, 3-(3-ethylsulfonyl-2-pyridyl)-8-(2,2,3,3,3-pentafluoropropoxy)imi-dazo[1,5-a]pyrazine]
≥ 80%: percent control (mortality or growth inhibition) at 200 ppm [1] | percent control (mortality or growth inhibition) at 200 ppm [2] | mortality at 200 ppm [6] | percent control (mortality or growth inhibition) at 200 ppm [4] | percent control (mortality, anti-feedant effect or growth inhibition) at 200 ppm [5]

CCS(=O)(=O)c1cc(C2(C#N)CC2)cnc1-c1ncc2c(OCC(F)(F)C(F)(F)F)nccn12 [Compound P15, 1-[5-ethylsulfonyl-6-[8-(2,2,3,3,3-penta-fluoropropoxy)imidazo [1,5-a]pyrazin-3-yl]-3-pyridyl]cyclopropane-carbonitrile]
≥ 80%: percent effect (mortality or growth inhibition) at 200 ppm [1] | percent effect (mortality or growth inhibition) at 200 ppm [2] | mortality at 200 ppm [6, 8] | percent effect (mortality or growth inhibition) at 200 ppm [4] | percent control (mortality, anti-feedant effect or growth inhibition) at 200 ppm [5, 7]

CCS(=O)(=O)c1ccc(N(C)C(C)=O)nc1-c1ncc2c(OCC(F)(F)C(F)(F)F)nccn12 [Compound P11, N-[5-ethylsulfonyl-6-[8-(2,2,3,3,3-penta-fluoropropoxy)imidazo [1,5-a]pyrazin-3-yl]-2-pyridyl]-N-methyl-acetamide]
≥ 80%: percent effect (mortality or growth inhibition) at 200 ppm [1] | percent effect (mortality or growth inhibition) at 200 ppm [2] | mortality at 200 ppm [3] | mortality at 200 ppm [6, 8] | percent effect (mortality or growth inhibition) at 200 ppm [4] | percent control (mortality, anti-feedant effect or growth inhibition) at 200 ppm [5, 7]

CCS(=O)(=O)c1ccc(-c2ncccn2)nc1-c1ncc2c(OCC(F)(F)C(F)(F)F)nccn12 [Compound P25, 3-(3-ethylsulfonyl-6-pyrimidin-2-yl-2-pyridyl)-8-(2,2,3,3,3-penta-fluoropropoxy)imidazo [1,5-a]pyrazine]
≥ 80%: percent effect (mortality or growth inhibition) at 200 ppm [1] | percent effect (mortality or growth inhibition) at 200 ppm [2] | mortality at 200 ppm [6, 8] | percent effect (mortality or growth inhibition) at 200 ppm [4] | percent control (mortality, anti-feedant effect or growth inhibition) at 200 ppm [5, 7]
